In patent US20260250262A1, “NEW COMPOUND AND PHARMACEUTICAL COMPOSITION COMPRISING SAME” (SAMJIN PHARMACEUTICAL CO., LTD., priority 2023, published 2026):
pIC50: −log10 of the molar value.

What was measured:
[1] = system: HCT-116 (colorectal cancer); experiment: Tumor cytotoxicity assay (MTT), HCT-116; type: cell-based; details: Homo sapiens, HCT-116, 72 hours
Experimental: (§1) First, the compounds were prepared in 100% dimethyl sulfoxide (DMSO) at concentrations of 0.02 μM to 200 μM, and then diluted in the culture medium so that the final concentration of DMSO might reach 0.5%, and treated with the drugs. The final concentration range of the compounds was 0.1 nM to 1000 nM. After that, they were further incubated for 72 hours under conditions of 37° C. and CO2 5%. […] The cell viability (%) was relatively determined by subtracting the reference 650 nm optical density (O.D.) from the 570 nm O.D., and the 0.5% DMSO-treated control was set as 100% as the standard.

NCI-N87 (gastric cancer) = experiment: Tumor cytotoxicity assay (MTT), NCI-N87; type: cell-based; details: Homo sapiens, NCI-N87, 72 hours
Experimental: as §1

[2] = target: T1, Recombinant NAMPT protein (Homo sapiens, UniProt P43490); experiment: NAMPT enzyme inhibition assay (BPS Bioscience NAMPT Inhibitor Screening Assay Kit); type: biochemical; details: 30 min pre-incubation, 2 h at 30° C., fluorescence
T1 construct: purchased BPS bioscience #7176-1
Experimental: Recombinant NAMPT protein was added to each well of a black 96-well plate, and dilution buffer was added to a blank well instead of NAMPT protein. A 5× concentrated compound solution was added and pre-incubated at room temperature (approximately 22° C.) for 30 minutes before the start of the reaction so that the compound and protein might bind before the enzyme reaction. At this time, the concentration of NAMPT protein was adjusted and used according to the enzyme activity of each protein lot within the final concentration range of 4-10 ng/μl, and the test compound was serially diluted at a ratio of 1:3 from 1000 nM to 1 nM, and experiments were conducted with n=2 for about seven concentrations. […] The NAMPT enzyme activity (%) was calculated by subtracting the measurement value of the blank well without NAMPT protein from the measurement value of all wells, and then taking the measurement value of the control well without the compound as 100%.

HCT-116 cell lines = experiment: Cellular NAD measurement assay (NAD/NADH-Glo); type: cell-based; details: Homo sapiens; HCT-116, 24 hours treatment, intracellular NAD+/NADH level
Experimental: With regard to HCT-116 cell lines, the decrease in intracellular NAD+ and NADH levels due to the inhibition of NAMPT enzyme activity by compounds was evaluated using NAD/NADH-Glo™ Assay (Promega, G9072) from Promega. The cells were incubated using DMEM (Gibco, 11995-065) medium containing 10% FBS. The HCT-116 cells were incubated for 24 hours after being distributed at a density of 2,500 cells per well in a 96-well plate, and were treated with the drugs using serum-free DMEM. First, the compounds were dissolved in 100% dimethyl sulfoxide (DMSO), and then diluted in the culture medium so that the final concentration of DMSO might reach 0.5%, and treated with the drugs. The final concentration range of the compounds was 0.1 nM to 100 nM. After that, they were further incubated for 24 hours under conditions of 37° C. and CO2 5%. To conduct the NAD/NADH-Glo™ Assay, the culture medium of drug-treated cells was removed, 50 μL of DPBS was treated per well, and left at room temperature for five minutes. The required amount of NAD/NADH-Glo™ Detection Reagent (Reconstituted Luciferin Detection Reagent 1 mL, Reductase 5 μL, Reductase Substrate 5 μL, NAD Cycling Enzyme 5 μL, NAD Cycling Substrate 25 μL) was prepared according to the manufacturer's manual and treated in an amount of 50 μL per well. After incubating for two minutes at 400 rpm in a plate shaker for cell lysis, the cells were incubated for 30 minutes at room temperature, and luminescence was measured. NAD+/NADH levels were calculated by subtracting the measurement value of the blank well without cells from the measurement value of all wells and taking the 0.5% DMSO-treated control as 100%.

T1 sequence (P43490 whole entry): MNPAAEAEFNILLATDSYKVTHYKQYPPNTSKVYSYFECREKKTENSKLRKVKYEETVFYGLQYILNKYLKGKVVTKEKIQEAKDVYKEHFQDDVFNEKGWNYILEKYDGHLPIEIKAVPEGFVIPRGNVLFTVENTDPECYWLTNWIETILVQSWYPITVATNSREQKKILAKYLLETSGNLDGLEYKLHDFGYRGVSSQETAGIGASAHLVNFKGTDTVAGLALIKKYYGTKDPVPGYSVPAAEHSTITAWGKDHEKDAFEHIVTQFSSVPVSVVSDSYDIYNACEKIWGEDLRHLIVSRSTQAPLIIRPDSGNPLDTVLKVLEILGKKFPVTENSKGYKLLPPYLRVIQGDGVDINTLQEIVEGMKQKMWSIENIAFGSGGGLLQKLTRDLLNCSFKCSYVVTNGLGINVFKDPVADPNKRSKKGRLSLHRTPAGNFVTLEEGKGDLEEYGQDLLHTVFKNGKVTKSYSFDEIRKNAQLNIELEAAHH

| pIC50 [2] | pIC50 (HCT-116 cell lines) | Compound | CC50 [1] [nM] | CC50 (NCI-N87 (gastric cancer)) [nM] |
| --- | --- | --- | --- | --- |
| > 6.30 | 6.00 to 8.00 | O=C(NCCc1cccnc1)Nc1ccc(-c2ccncc2)c(C#Cc2ccc(F)cc2)c1 [Compound 1, 1-(3-((4-fluorophenyl)ethynyl)-4-(pyridin-4-yl)phenyl)-3-(2-(pyridin-3-yl)ethyl)urea] | 30 to 100 | 30 to 100 |
| > 6.30 |  | O=C(NCCc1cccnc1)Nc1ccc(-c2ccc(C(=O)N3CCC(F)(F)CC3)cc2)c(C#Cc2ccc(F)cc2)c1 [Compound 2, 1-(4′-(4,4-difluoropiperidine-1-carbonyl)-2-((4-fluorophenyl)ethynyl)-[1,1′-biphenyl]-4-yl)-3-(2-(pyridin-3-yl)ethyl)urea] |  |  |
| 6.00 to 6.30 |  | O=C(NCCn1ccnc1)Nc1ccc(-c2ccncc2)c(C#Cc2ccc(F)cc2)c1 [Compound 3, 1-(2-(1H-imidazol-1-yl)ethyl)-3-(3-((4-fluorophenyl)ethynyl)-4-(pyridin-4-yl)phenyl)urea] |  |  |
| > 6.30 | ≥ 8.00 | O=C(NCc1ccn2ccnc2c1)Nc1ccc(-c2ccncc2)c(C#Cc2ccc(F)cc2)c1 [Compound 4, 1-(3-((4-fluorophenyl)ethynyl)-4-(pyridin-4-yl)phenyl)-3-(imidazo[1,2-a]pyridin-7-ylmethyl)urea] | < 30 | < 30 |
| < 6.00 |  | O=C(NCCc1cccc(O)c1)Nc1ccc(-c2ccncc2)c(C#Cc2ccc(F)cc2)c1 [Compound 5, 1-(3-((4-fluorophenyl)ethynyl)-4-(pyridin-4-yl)phenyl)-3-(3-hydroxyphenethyl)urea] |  |  |
| > 6.30 |  | O=C(NCc1cc2cnccc2[nH]1)Nc1ccc(-c2ccncc2)c(C#Cc2ccc(F)cc2)c1 [Compound 6, 1-((1H-pyrrolo[3,2-c]pyridin-2-yl)methyl)-3-(3-((4-fluorophenyl)ethynyl)-4-(pyridin-4-yl)phenyl)urea] | 30 to 100 |  |
| > 6.30 |  | O=C(NCCc1cccnc1)Nc1ccc(-c2ccncc2)c(C#Cc2ccc(C(=O)NCCN3CCCCC3)cc2)c1 [Compound 7, N-(2-(piperidin-1-yl)ethyl)-4-((5-(3-(2-(pyridin-3-yl)ethyl)ureido)-2-(pyridin-4-yl)phenyl)ethynyl)benzamide] | < 30 |  |
| < 6.00 |  | O=C(NCCn1ccnc1[N+](=O)[O-])Nc1ccc(-c2ccncc2)c(C#Cc2ccc(F)cc2)c1 [Compound 8, 1-(3-((4-fluorophenyl)ethynyl)-4-(pyridin-4-yl)phenyl)-3-(2-(2-nitro-1H-imidazol-1-yl)ethyl)urea] |  |  |
| 6.00 to 6.30 |  | O=C(NCCc1cccnc1)Nc1ccc(-c2cccc(N3CCOCC3)c2)c(C#Cc2ccc(F)cc2)c1 [Compound 9, 1-(2-((4-fluorophenyl)ethynyl)-3′-morpholino-[1,1′-biphenyl]-4-yl)-3-(2-(pyridin-3-yl)ethyl)urea] |  |  |
| < 6.00 |  | Nc1ccc(CCNC(=O)Nc2ccc(-c3ccncc3)c(C#Cc3ccc(F)cc3)c2)cn1 [Compound 10] |  |  |
| < 6.00 |  | O=C(NCCc1ccc2ocnc2c1)Nc1ccc(-c2ccncc2)c(C#Cc2ccc(F)cc2)c1 [Compound 11] |  |  |
| > 6.30 | ≥ 8.00 | O=C(NCCc1cccnc1)Nc1ccc(-c2ccc(N3CCNCC3)cc2)c(C#Cc2ccc(F)cc2)c1 [Compound 13, 1-(2-((4-fluorophenyl)ethynyl)-4′-(piperazin-1-yl)-[1,1′-biphenyl]-4-yl)-3-(2-(pyridin-3-yl)ethyl)urea] | < 30 | < 30 |
| > 6.30 |  | O=C(NCCc1cccnc1)Nc1ccc(-c2ccncc2)c(C#Cc2ccc(C(=O)NCCN3CCC4(CCNC4)CC3)cc2)c1 [Compound 35] | 30 to 100 | 30 to 100 |
| > 6.30 |  | NC1CCCN(CCNC(=O)c2ccc(C#Cc3cc(NC(=O)NCCc4cccnc4)ccc3-c3ccncc3)cc2)C1 (stereo not drawn) [Compound 40] | 30 to 100 | 30 to 100 |
| < 6.00 |  | NC1CCN(C(=O)c2cccc(-c3ccc(NC(=O)NCCc4cccnc4)cc3C#Cc3ccc(C(=O)NCCN4CCCCC4)cc3)c2)C1 (stereo not drawn) [Compound 43] |  |  |
| > 6.30 |  | Nc1cccc(C(=O)N2CCN(c3ccc(NC(=O)NCCc4cccnc4)cc3C#Cc3ccc(F)cc3)CC2)c1 [Compound 52] |  |  |
| > 6.30 |  | O=C(NCCc1cccnc1)Nc1ccc(-c2ccc3cnccc3c2)c(C#Cc2ccc(F)cc2)c1 [Compound 57] |  |  |
| > 6.30 |  | NC1CCN(C(=O)c2ccc(C#Cc3cc(NC(=O)NCCc4cccnc4)ccc3-c3ccncc3)cc2)CC1 [Compound 65, 1-(3-((4-(4-aminopiperidin-1-carbonyl)phenyl)ethynyl)-4-(pyridin-4-yl)phenyl)-3-(2-(pyridin-3-yl)ethyl)urea] | 30 to 100 |  |

| pIC50 [2] | pIC50 (HCT-116 cell lines) | Compound | CC50 [1] [nM] | CC50 (NCI-N87 (gastric cancer)) [nM] |
| --- | --- | --- | --- | --- |
| > 6.30 |  | O=C(NCCc1cccnc1)Nc1ccc(-c2ccncc2)c(C#Cc2ccc(C(=O)NC3CCNCC3)cc2)c1 [Compound 66, N-(piperidin-4-yl)-4-((5-(3-(2-(pyridin-3-yl)ethyl)ureido)-2-(pyridin-4-yl)phenyl)ethynyl)benzamide] | 30 to 100 | < 30 |
| > 6.30 |  | Cn1ccc(CS(=O)(=O)c2ccc(NC(=O)NCCc3cccnc3)cc2C#Cc2ccc(F)cc2)n1 [Compound 69] |  |  |
| > 6.30 |  | O=C(NCCc1cccnc1)Nc1ccc(CC(=O)N2CCCCC2)c(C#Cc2ccc(F)cc2)c1 [Compound 74] |  | < 30 |
| > 6.30 |  | CC(C(=O)NC1CCCCC1)c1ccc(NC(=O)NCCc2cccnc2)cc1C#Cc1ccc(C(=O)NCCN2CCCCC2)cc1 (stereo not drawn) [Compound 89] | 30 to 100 |  |
| > 6.30 |  | O=C(NCCc1cccnc1)Nc1ccc(C(=O)Nc2ccccc2)c(C#Cc2ccc(C(=O)NCCN3CCCCC3)cc2)c1 [Compound 95] |  |  |
| > 6.30 |  | O=C(NCCCc1cn[nH]c1)Nc1ccc(-c2ccncc2)c(C#Cc2ccc(F)cc2)c1 [Compound 110] |  |  |
| < 6.00 |  | O=C(NCCc1cccnc1)Nc1ccc(N2CCNCC2)c(C#Cc2ccc(F)cc2)c1 [Compound 118] |  |  |
| > 6.30 |  | CCC(=O)Nc1ccc(NC(=O)NCCc2cccnc2)cc1C#Cc1ccc(F)cc1 [Compound 122] |  |  |
| > 6.30 |  | O=C(NCCc1cccnc1)Nc1ccc(NC(=O)c2ccc(F)cc2)c(C#Cc2ccc(F)cc2)c1 [Compound 124] |  |  |
| > 6.30 |  | CC(=O)Nc1ccc(C#Cc2cc(NC(=O)NCCc3cccnc3)ccc2-c2ccncc2)cc1 [Compound 126, N-(4-((5-(3-(2-(pyridin-3-yl)ethyl)ureido)-2-(pyridin-4-yl)phenyl)ethynyl)phenyl)acetamide] |  | < 30 |
| > 6.30 |  | Nc1cccc(C#Cc2cc(NC(=O)NCCc3cccnc3)ccc2-c2ccncc2)c1 [Compound 139] |  |  |
| > 6.30 |  | Nc1cccc(C(=O)Nc2ccc(NC(=O)NCCc3cccnc3)cc2C#Cc2ccc(F)cc2)c1 [Compound 177] |  |  |
| < 6.00 |  | O=C(NCCc1ccc([N+](=O)[O-])nc1)Nc1ccc(-c2ccncc2)c(C#Cc2ccc(F)cc2)c1 [Compound 182] |  |  |
| > 6.30 | ≥ 8.00 | Cn1ccc(CS(=O)(=O)c2ccc(NC(=O)NCc3ccn4ccnc4c3)cc2C#Cc2ccc(F)cc2)n1 [Compound 183, 1-(3-((4-fluorophenyl)ethynyl)-4-(((1-methyl-1H-pyrazol-3-yl)methyl)sulfonyl)phenyl)-3-(imidazo[1,2-a]pyridin-7-ylmethyl)urea] | < 30 |  |
| 6.00 to 6.30 |  | NC1CCCN(c2ccc(NC(=O)NCCc3cccnc3)cc2C#Cc2ccc(C(=O)NCCN3CCCCC3)cc2)C1 (stereo not drawn) [Compound 184] |  |  |
| 6.00 to 6.30 |  | O=C(NCc1ccn2ccnc2c1)Nc1ccc(-c2ccc(N3CCNCC3)cc2)c(C#Cc2ccc(F)cc2)c1 [Compound 185] |  |  |
| > 6.30 |  | Cc1nc2cc(-c3ccc(NC(=O)NCc4ccn5ccnc5c4)cc3C#Cc3ccc(F)cc3)ccc2c(=O)n1CCN [Compound 188] | < 30 | < 30 |
